Measured values: the kinase profiling compilation of Christmann-Franck et al. (2016)

target: BRSK2 (human) (UniProt Q8IWQ3); experiment: radiometric filter-binding kinase assay, Kinase HotSpot; details: compound 0.5 µM; ATP 10 µM

Row | SMILES | residual activity
1 | Clc1ccc(Nc2nnc(Cc3ccncc3)c3ccccc23)cc1 | 97.1%
2 | O=C(NC(NC(=S)Nc1ccc(F)c([N+](=O)[O-])c1)C(Cl)(Cl)Cl)C(c1ccccc1)c1ccccc1 (centres undefined) | 102%
3 | Cc1cc2ncc(-c3ccccc3)nc2cc1C | 102%
4 | Nc1n[nH]c2nnc(-c3c(-c4ccccc4)nn4ccccc34)cc12 | 96.1%

target: CDK6 CCND1 (human) (UniProt Q00534+P24385); experiment: as above; details: compound 0.5 µM; ATP 10 µM
Sequence (P24385 whole entry, looked up): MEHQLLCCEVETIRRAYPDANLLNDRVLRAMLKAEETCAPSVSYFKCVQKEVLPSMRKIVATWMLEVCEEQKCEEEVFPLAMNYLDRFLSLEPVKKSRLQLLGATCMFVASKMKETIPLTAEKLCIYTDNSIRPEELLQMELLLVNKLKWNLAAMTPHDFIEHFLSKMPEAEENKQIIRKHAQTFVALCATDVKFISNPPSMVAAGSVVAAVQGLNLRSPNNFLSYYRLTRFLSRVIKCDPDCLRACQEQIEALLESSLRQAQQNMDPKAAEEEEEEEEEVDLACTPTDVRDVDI
Sequence (Q00534 whole entry, looked up): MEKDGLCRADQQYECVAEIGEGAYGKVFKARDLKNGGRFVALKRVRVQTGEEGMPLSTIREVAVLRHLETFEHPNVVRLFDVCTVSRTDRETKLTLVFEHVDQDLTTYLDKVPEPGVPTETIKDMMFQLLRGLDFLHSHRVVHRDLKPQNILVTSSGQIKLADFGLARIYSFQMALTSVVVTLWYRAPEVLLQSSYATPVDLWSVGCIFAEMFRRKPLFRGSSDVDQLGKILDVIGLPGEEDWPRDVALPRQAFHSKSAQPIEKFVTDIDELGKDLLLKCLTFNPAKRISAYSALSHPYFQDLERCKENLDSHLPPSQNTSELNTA

Row | SMILES | residual activity
5 | Clc1ccc(Nc2nnc(Cc3ccncc3)c3ccccc23)cc1 | 93%
6 | O=C(NC(NC(=S)Nc1ccc(F)c([N+](=O)[O-])c1)C(Cl)(Cl)Cl)C(c1ccccc1)c1ccccc1 (centres undefined) | 101%
7 | Cc1cc2ncc(-c3ccccc3)nc2cc1C | 87.1%
8 | Nc1n[nH]c2nnc(-c3c(-c4ccccc4)nn4ccccc34)cc12 | 100%

target: SRPK2 (human) (UniProt P78362); experiment: as above; details: compound 0.5 µM; ATP 10 µM
Sequence (P78362 whole entry, looked up): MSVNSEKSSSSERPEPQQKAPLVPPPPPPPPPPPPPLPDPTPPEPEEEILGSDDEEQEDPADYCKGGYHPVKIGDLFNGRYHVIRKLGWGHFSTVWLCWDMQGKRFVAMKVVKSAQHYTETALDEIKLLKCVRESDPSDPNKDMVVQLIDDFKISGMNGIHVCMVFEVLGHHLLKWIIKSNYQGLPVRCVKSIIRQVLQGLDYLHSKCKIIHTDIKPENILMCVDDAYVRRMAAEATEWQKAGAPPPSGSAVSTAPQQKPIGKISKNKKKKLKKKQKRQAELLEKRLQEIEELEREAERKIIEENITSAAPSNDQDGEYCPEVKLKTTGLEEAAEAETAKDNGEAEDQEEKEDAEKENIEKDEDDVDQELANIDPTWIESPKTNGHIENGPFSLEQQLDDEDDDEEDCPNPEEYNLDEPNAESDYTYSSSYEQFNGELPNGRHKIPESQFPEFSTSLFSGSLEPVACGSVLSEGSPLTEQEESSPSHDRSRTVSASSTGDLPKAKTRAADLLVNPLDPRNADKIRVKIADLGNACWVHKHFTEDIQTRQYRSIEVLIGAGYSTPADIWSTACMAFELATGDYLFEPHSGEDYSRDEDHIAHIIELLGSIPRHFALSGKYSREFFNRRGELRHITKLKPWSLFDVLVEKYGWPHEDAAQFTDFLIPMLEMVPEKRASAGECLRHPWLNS

Row | SMILES | residual activity
9 | Clc1ccc(Nc2nnc(Cc3ccncc3)c3ccccc23)cc1 | 96.5%
10 | O=C(NC(NC(=S)Nc1ccc(F)c([N+](=O)[O-])c1)C(Cl)(Cl)Cl)C(c1ccccc1)c1ccccc1 (centres undefined) | 103%
11 | Cc1cc2ncc(-c3ccccc3)nc2cc1C | 95.3%
12 | Nc1n[nH]c2nnc(-c3c(-c4ccccc4)nn4ccccc34)cc12 | 73.8%

target: STK17A (human) (UniProt Q9UEE5); experiment: as above; details: compound 0.5 µM; ATP 10 µM

Row | SMILES | residual activity
13 | Clc1ccc(Nc2nnc(Cc3ccncc3)c3ccccc23)cc1 | 99.4%
14 | O=C(NC(NC(=S)Nc1ccc(F)c([N+](=O)[O-])c1)C(Cl)(Cl)Cl)C(c1ccccc1)c1ccccc1 (centres undefined) | 99.8%
15 | Cc1cc2ncc(-c3ccccc3)nc2cc1C | 80%
16 | Nc1n[nH]c2nnc(-c3c(-c4ccccc4)nn4ccccc34)cc12 | 99.9%

target: PAK6 (human) (UniProt Q9NQU5); experiment: as above; details: compound 0.5 µM; ATP 10 µM
Sequence (Q9NQU5 whole entry, looked up): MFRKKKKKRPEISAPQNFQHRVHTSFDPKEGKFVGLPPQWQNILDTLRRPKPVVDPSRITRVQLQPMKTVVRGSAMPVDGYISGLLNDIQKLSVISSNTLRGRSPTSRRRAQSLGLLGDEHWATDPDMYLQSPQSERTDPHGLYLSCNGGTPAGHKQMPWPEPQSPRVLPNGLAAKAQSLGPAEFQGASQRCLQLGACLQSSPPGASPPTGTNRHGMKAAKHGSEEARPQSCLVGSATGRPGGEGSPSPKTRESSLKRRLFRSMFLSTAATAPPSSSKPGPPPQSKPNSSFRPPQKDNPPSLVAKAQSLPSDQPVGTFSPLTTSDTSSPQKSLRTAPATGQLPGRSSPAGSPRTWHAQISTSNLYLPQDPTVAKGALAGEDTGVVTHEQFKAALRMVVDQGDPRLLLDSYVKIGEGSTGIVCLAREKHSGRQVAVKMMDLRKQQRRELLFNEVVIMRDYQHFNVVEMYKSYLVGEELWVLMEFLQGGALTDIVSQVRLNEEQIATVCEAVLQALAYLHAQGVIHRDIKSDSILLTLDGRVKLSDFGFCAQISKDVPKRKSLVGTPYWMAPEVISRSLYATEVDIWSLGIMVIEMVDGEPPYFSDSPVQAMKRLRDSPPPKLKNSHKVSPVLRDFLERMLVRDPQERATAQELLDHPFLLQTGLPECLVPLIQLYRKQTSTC

Row | SMILES | residual activity
17 | Clc1ccc(Nc2nnc(Cc3ccncc3)c3ccccc23)cc1 | 107%
18 | O=C(NC(NC(=S)Nc1ccc(F)c([N+](=O)[O-])c1)C(Cl)(Cl)Cl)C(c1ccccc1)c1ccccc1 (centres undefined) | 101%
19 | Cc1cc2ncc(-c3ccccc3)nc2cc1C | 97.4%
20 | Nc1n[nH]c2nnc(-c3c(-c4ccccc4)nn4ccccc34)cc12 | 96.4%

target: SRPK3 (human) (UniProt Q9UPE1); experiment: as above; details: compound 0.5 µM; ATP 10 µM

Row | SMILES | residual activity
21 | Clc1ccc(Nc2nnc(Cc3ccncc3)c3ccccc23)cc1 | 104%
22 | O=C(NC(NC(=S)Nc1ccc(F)c([N+](=O)[O-])c1)C(Cl)(Cl)Cl)C(c1ccccc1)c1ccccc1 (centres undefined) | 98%
23 | Cc1cc2ncc(-c3ccccc3)nc2cc1C | 91.4%
24 | Nc1n[nH]c2nnc(-c3c(-c4ccccc4)nn4ccccc34)cc12 | 88.9%

target: STK10 (human) (UniProt O94804); experiment: as above; details: compound 0.5 µM; ATP 10 µM

Row | SMILES | residual activity
25 | Clc1ccc(Nc2nnc(Cc3ccncc3)c3ccccc23)cc1 | 96.3%
26 | O=C(NC(NC(=S)Nc1ccc(F)c([N+](=O)[O-])c1)C(Cl)(Cl)Cl)C(c1ccccc1)c1ccccc1 (centres undefined) | 108%
27 | Cc1cc2ncc(-c3ccccc3)nc2cc1C | 90.7%
28 | Nc1n[nH]c2nnc(-c3c(-c4ccccc4)nn4ccccc34)cc12 | 70.9%

target: NUAK1 (human) (UniProt O60285); experiment: as above; details: compound 0.5 µM; ATP 10 µM

Row | SMILES | residual activity
29 | Clc1ccc(Nc2nnc(Cc3ccncc3)c3ccccc23)cc1 | 112%
30 | O=C(NC(NC(=S)Nc1ccc(F)c([N+](=O)[O-])c1)C(Cl)(Cl)Cl)C(c1ccccc1)c1ccccc1 (centres undefined) | 95.3%
31 | Cc1cc2ncc(-c3ccccc3)nc2cc1C | 92.3%
32 | Nc1n[nH]c2nnc(-c3c(-c4ccccc4)nn4ccccc34)cc12 | 92.5%

target: RAF1 (human) (UniProt P04049); experiment: as above; details: compound 0.5 µM; ATP 10 µM

Row | SMILES | residual activity
33 | Clc1ccc(Nc2nnc(Cc3ccncc3)c3ccccc23)cc1 | 93.3%
34 | O=C(NC(NC(=S)Nc1ccc(F)c([N+](=O)[O-])c1)C(Cl)(Cl)Cl)C(c1ccccc1)c1ccccc1 (centres undefined) | 95.3%
35 | Cc1cc2ncc(-c3ccccc3)nc2cc1C | 95.6%
36 | Nc1n[nH]c2nnc(-c3c(-c4ccccc4)nn4ccccc34)cc12 | 95.6%

target: FER (human) (UniProt P16591); experiment: as above; details: compound 0.5 µM; ATP 10 µM

Row | SMILES | residual activity
37 | Clc1ccc(Nc2nnc(Cc3ccncc3)c3ccccc23)cc1 | 91.4%
38 | O=C(NC(NC(=S)Nc1ccc(F)c([N+](=O)[O-])c1)C(Cl)(Cl)Cl)C(c1ccccc1)c1ccccc1 (centres undefined) | 104%
39 | Cc1cc2ncc(-c3ccccc3)nc2cc1C | 91%
40 | Nc1n[nH]c2nnc(-c3c(-c4ccccc4)nn4ccccc34)cc12 | 90.8%

target: STK11 (human) (UniProt Q15831); experiment: as above; details: compound 0.5 µM; ATP 10 µM

Row | SMILES | residual activity
41 | Clc1ccc(Nc2nnc(Cc3ccncc3)c3ccccc23)cc1 | 97.3%
42 | O=C(NC(NC(=S)Nc1ccc(F)c([N+](=O)[O-])c1)C(Cl)(Cl)Cl)C(c1ccccc1)c1ccccc1 (centres undefined) | 94.2%
43 | Cc1cc2ncc(-c3ccccc3)nc2cc1C | 94%
44 | Nc1n[nH]c2nnc(-c3c(-c4ccccc4)nn4ccccc34)cc12 | 91.8%

target: PTK2 (human) (UniProt Q05397); experiment: as above; details: compound 0.5 µM; ATP 10 µM

Row | SMILES | residual activity
45 | Clc1ccc(Nc2nnc(Cc3ccncc3)c3ccccc23)cc1 | 101%
46 | O=C(NC(NC(=S)Nc1ccc(F)c([N+](=O)[O-])c1)C(Cl)(Cl)Cl)C(c1ccccc1)c1ccccc1 (centres undefined) | 113%
47 | Cc1cc2ncc(-c3ccccc3)nc2cc1C | 92.5%
48 | Nc1n[nH]c2nnc(-c3c(-c4ccccc4)nn4ccccc34)cc12 | 99.2%

target: RPS6KB2 (human) (UniProt Q9UBS0); experiment: as above; details: compound 0.5 µM; ATP 10 µM
Sequence (Q9UBS0 whole entry, looked up): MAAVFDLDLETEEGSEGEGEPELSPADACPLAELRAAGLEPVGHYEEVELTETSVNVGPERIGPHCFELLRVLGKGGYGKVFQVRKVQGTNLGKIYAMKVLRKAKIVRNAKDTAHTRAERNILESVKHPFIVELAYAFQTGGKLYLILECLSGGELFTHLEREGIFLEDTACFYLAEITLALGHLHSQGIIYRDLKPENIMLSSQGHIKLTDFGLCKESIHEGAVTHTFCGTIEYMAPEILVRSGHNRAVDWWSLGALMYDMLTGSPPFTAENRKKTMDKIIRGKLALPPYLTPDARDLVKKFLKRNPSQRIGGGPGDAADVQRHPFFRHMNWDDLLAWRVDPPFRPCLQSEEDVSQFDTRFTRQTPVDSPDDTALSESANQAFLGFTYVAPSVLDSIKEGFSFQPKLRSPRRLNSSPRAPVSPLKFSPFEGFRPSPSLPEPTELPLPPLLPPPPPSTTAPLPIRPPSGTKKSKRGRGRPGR

Row | SMILES | residual activity
49 | Clc1ccc(Nc2nnc(Cc3ccncc3)c3ccccc23)cc1 | 101%
50 | O=C(NC(NC(=S)Nc1ccc(F)c([N+](=O)[O-])c1)C(Cl)(Cl)Cl)C(c1ccccc1)c1ccccc1 (centres undefined) | 99.3%
51 | Cc1cc2ncc(-c3ccccc3)nc2cc1C | 98.7%
52 | Nc1n[nH]c2nnc(-c3c(-c4ccccc4)nn4ccccc34)cc12 | 104%

target: LTK (human) (UniProt P29376); experiment: as above; details: compound 0.5 µM; ATP 10 µM

Row | SMILES | residual activity
53 | Clc1ccc(Nc2nnc(Cc3ccncc3)c3ccccc23)cc1 | 105%
54 | O=C(NC(NC(=S)Nc1ccc(F)c([N+](=O)[O-])c1)C(Cl)(Cl)Cl)C(c1ccccc1)c1ccccc1 (centres undefined) | 91.5%
55 | Cc1cc2ncc(-c3ccccc3)nc2cc1C | 90.3%
56 | Nc1n[nH]c2nnc(-c3c(-c4ccccc4)nn4ccccc34)cc12 | 90.5%

target: IRAK1 (human) (UniProt P51617); experiment: as above; details: compound 0.5 µM; ATP 10 µM
Sequence (P51617 whole entry, looked up): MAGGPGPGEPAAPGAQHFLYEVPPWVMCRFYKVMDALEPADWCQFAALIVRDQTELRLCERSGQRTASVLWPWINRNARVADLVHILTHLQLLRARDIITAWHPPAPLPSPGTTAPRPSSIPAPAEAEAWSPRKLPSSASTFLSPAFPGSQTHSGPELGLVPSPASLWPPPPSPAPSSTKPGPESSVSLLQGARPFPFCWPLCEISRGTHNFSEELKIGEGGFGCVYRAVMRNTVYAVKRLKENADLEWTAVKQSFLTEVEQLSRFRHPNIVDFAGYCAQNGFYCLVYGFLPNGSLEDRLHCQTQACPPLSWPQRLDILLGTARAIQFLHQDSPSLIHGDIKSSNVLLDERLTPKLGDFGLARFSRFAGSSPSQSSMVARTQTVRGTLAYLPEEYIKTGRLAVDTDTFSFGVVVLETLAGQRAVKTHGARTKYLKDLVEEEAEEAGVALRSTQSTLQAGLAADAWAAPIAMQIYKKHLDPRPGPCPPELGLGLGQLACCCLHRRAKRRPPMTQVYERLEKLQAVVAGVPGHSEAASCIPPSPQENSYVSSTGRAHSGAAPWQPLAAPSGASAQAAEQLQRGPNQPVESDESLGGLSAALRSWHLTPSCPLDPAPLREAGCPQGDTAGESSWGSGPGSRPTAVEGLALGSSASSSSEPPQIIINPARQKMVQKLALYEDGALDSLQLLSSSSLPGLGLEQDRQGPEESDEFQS

Row | SMILES | residual activity
57 | Clc1ccc(Nc2nnc(Cc3ccncc3)c3ccccc23)cc1 | 94.1%
58 | O=C(NC(NC(=S)Nc1ccc(F)c([N+](=O)[O-])c1)C(Cl)(Cl)Cl)C(c1ccccc1)c1ccccc1 (centres undefined) | 107%
59 | Cc1cc2ncc(-c3ccccc3)nc2cc1C | 114%
60 | Nc1n[nH]c2nnc(-c3c(-c4ccccc4)nn4ccccc34)cc12 | 105%

target: PIM2 (human) (UniProt Q9P1W9); experiment: as above; details: compound 0.5 µM; ATP 10 µM
Sequence (Q9P1W9 whole entry, looked up): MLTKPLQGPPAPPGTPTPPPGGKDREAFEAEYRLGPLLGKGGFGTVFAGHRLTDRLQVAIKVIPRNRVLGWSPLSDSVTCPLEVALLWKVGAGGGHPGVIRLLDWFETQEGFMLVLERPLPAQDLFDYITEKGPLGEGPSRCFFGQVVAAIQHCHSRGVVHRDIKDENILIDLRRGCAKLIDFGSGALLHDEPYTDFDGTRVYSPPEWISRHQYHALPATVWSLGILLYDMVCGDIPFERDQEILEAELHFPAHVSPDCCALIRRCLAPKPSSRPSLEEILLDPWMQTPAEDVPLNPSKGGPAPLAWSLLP

Row | SMILES | residual activity
61 | Clc1ccc(Nc2nnc(Cc3ccncc3)c3ccccc23)cc1 | 95.8%
62 | O=C(NC(NC(=S)Nc1ccc(F)c([N+](=O)[O-])c1)C(Cl)(Cl)Cl)C(c1ccccc1)c1ccccc1 (centres undefined) | 117%
63 | Cc1cc2ncc(-c3ccccc3)nc2cc1C | 81%
64 | Nc1n[nH]c2nnc(-c3c(-c4ccccc4)nn4ccccc34)cc12 | 91.7%

target: CAMKK1 (human) (UniProt Q8N5S9); experiment: as above; details: compound 0.5 µM; ATP 10 µM

Row | SMILES | residual activity
65 | Clc1ccc(Nc2nnc(Cc3ccncc3)c3ccccc23)cc1 | 97.2%
66 | O=C(NC(NC(=S)Nc1ccc(F)c([N+](=O)[O-])c1)C(Cl)(Cl)Cl)C(c1ccccc1)c1ccccc1 (centres undefined) | 128%
67 | Cc1cc2ncc(-c3ccccc3)nc2cc1C | 98%
68 | Nc1n[nH]c2nnc(-c3c(-c4ccccc4)nn4ccccc34)cc12 | 125%

target: CSNK1E (human) (UniProt P49674); experiment: as above; details: compound 0.5 µM; ATP 10 µM

Row | SMILES | residual activity
69 | Clc1ccc(Nc2nnc(Cc3ccncc3)c3ccccc23)cc1 | 99.1%
70 | O=C(NC(NC(=S)Nc1ccc(F)c([N+](=O)[O-])c1)C(Cl)(Cl)Cl)C(c1ccccc1)c1ccccc1 (centres undefined) | 111%
71 | Cc1cc2ncc(-c3ccccc3)nc2cc1C | 85.5%
72 | Nc1n[nH]c2nnc(-c3c(-c4ccccc4)nn4ccccc34)cc12 | 80.9%

target: PRKCB1 (human) (UniProt P05771); experiment: as above; details: compound 0.5 µM; ATP 10 µM
Sequence (P05771 whole entry, looked up): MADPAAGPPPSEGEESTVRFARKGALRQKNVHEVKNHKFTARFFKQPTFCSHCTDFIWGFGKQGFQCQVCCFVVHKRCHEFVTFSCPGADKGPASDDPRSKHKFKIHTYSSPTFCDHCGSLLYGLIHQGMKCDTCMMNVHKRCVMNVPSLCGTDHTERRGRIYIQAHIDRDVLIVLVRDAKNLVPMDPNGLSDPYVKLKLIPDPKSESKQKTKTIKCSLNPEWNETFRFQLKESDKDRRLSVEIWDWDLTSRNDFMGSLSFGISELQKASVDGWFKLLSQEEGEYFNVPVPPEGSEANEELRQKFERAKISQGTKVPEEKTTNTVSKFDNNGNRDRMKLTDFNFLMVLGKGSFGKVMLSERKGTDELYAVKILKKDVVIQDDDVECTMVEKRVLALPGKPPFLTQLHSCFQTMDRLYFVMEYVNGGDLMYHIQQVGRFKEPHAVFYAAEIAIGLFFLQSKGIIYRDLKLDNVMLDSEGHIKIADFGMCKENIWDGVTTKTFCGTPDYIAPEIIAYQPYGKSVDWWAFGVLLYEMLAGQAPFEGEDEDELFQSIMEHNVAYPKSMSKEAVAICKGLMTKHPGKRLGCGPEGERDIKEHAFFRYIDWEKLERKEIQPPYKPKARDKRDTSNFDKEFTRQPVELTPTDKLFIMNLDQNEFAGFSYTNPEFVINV

Row | SMILES | residual activity
73 | Clc1ccc(Nc2nnc(Cc3ccncc3)c3ccccc23)cc1 | 83.5%
74 | O=C(NC(NC(=S)Nc1ccc(F)c([N+](=O)[O-])c1)C(Cl)(Cl)Cl)C(c1ccccc1)c1ccccc1 (centres undefined) | 103%
75 | Cc1cc2ncc(-c3ccccc3)nc2cc1C | 103%
76 | Nc1n[nH]c2nnc(-c3c(-c4ccccc4)nn4ccccc34)cc12 | 96.5%

target: MLTK (human) (UniProt Q9NYL2); experiment: as above; details: compound 0.5 µM; ATP 10 µM
Sequence (Q9NYL2 whole entry, looked up): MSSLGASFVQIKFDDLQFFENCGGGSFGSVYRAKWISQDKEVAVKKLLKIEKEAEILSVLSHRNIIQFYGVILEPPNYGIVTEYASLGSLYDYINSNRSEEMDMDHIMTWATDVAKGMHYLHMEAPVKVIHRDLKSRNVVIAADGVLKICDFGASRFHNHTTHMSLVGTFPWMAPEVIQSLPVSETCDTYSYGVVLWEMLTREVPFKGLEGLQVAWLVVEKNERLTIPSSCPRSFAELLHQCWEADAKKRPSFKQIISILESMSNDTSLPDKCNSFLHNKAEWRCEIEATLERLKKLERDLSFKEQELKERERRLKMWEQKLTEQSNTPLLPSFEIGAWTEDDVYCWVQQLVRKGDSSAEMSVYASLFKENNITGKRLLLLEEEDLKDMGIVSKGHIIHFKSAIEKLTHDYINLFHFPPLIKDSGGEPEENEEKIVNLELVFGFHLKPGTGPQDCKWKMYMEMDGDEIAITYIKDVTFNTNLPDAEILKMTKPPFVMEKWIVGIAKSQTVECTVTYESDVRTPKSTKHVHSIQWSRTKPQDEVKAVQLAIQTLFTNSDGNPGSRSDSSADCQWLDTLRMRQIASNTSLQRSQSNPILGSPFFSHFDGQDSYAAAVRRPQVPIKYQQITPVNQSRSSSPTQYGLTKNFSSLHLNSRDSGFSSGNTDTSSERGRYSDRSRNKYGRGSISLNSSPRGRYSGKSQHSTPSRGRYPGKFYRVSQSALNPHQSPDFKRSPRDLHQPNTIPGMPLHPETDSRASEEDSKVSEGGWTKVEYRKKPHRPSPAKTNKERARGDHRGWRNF

Row | SMILES | residual activity
77 | Clc1ccc(Nc2nnc(Cc3ccncc3)c3ccccc23)cc1 | 90.3%
78 | O=C(NC(NC(=S)Nc1ccc(F)c([N+](=O)[O-])c1)C(Cl)(Cl)Cl)C(c1ccccc1)c1ccccc1 (centres undefined) | 98.6%
79 | Cc1cc2ncc(-c3ccccc3)nc2cc1C | 102%
80 | Nc1n[nH]c2nnc(-c3c(-c4ccccc4)nn4ccccc34)cc12 | 101%

target: FLT3 (human) (UniProt P36888); experiment: as above; details: compound 0.5 µM; ATP 10 µM

Row | SMILES | residual activity
81 | Clc1ccc(Nc2nnc(Cc3ccncc3)c3ccccc23)cc1 | 92%
82 | O=C(NC(NC(=S)Nc1ccc(F)c([N+](=O)[O-])c1)C(Cl)(Cl)Cl)C(c1ccccc1)c1ccccc1 (centres undefined) | 99.3%
83 | Cc1cc2ncc(-c3ccccc3)nc2cc1C | 53.6%
84 | Nc1n[nH]c2nnc(-c3c(-c4ccccc4)nn4ccccc34)cc12 | 63.5%
